Source: BindingDB's records for doi:10.1016/j.bmcl.2006.09.059 (Seoul National University, 2006)

Target: Transient receptor potential cation channel subfamily V member 1 (Rattus norvegicus, UniProt O35433)
Assay: Agonist activity at rat TRPV1 expressed in CHO cells assessed as maximal calcium uptake

Chain of Transient receptor potential cation channel subfamily V member 1 (O35433 whole entry): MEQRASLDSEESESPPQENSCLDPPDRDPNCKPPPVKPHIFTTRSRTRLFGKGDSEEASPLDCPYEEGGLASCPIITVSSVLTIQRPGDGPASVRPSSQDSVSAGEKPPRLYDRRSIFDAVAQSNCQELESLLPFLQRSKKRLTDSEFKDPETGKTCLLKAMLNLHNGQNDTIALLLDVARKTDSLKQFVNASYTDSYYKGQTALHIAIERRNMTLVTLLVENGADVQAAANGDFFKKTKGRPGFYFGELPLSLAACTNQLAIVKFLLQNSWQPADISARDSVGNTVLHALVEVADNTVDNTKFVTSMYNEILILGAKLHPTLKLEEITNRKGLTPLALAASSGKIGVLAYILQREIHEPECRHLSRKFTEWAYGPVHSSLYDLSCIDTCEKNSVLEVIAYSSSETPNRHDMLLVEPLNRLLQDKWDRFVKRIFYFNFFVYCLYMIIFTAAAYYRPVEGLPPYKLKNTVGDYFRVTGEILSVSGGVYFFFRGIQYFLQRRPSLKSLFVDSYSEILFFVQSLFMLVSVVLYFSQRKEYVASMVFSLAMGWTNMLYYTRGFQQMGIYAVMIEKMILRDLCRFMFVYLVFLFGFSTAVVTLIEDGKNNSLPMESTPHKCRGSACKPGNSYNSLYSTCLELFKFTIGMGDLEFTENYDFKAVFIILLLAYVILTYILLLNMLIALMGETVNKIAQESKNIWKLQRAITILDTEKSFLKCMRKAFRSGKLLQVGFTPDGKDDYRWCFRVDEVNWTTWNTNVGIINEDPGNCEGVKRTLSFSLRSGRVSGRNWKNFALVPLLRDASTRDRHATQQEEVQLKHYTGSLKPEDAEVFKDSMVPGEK

For COc1cc(CNC(=S)NC(COC(=O)C(C)(C)C)Cc2ccc(C(C)(C)C)cc2)ccc1O (stereo unspecified) [2-(3-(4-hydroxy-3-methoxybenzyl)thioureido)-3-(4-tert-butylphenyl)propyl pivalate], the EC50 was 5.7 nM.
